In patent US8835462B2, “Macrocyclic picolinamides as fungicides” (Dow AgroSciences LLC, priority 2012, dated 2014):

Tests used:
Type in all cases: in vivo
[1] = test system: Blumeria graminis f. sp. tritici; experiment: Wheat powdery mildew (ERYSGT) fungicidal activity; conditions: 24 h, 1 Day Protectant, read-out: Disease Control ERYSGT 1DP
Method: Technical grades of materials were dissolved in acetone, which were then mixed with nine volumes of water containing 110 ppm Triton X-100. The fungicide solutions were applied onto wheat seedlings using an automated booth sprayer to run-off. All sprayed plants were allowed to air dry prior to further handling. Wheat plants (variety Yuma) were grown from seed in a greenhouse in 50% mineral soil/50% soil-less Metro mix until the first leaf was fully emerged, with 7-10 seedlings per pot. These plants were inoculated with an aqueous spore suspension of Septoria tritici either prior to or after fungicide treatments. After inoculation the plants were kept in 100% relative humidity (one day in a dark dew chamber followed by two to three days in a lighted dew chamber at 20° C.) to permit spores to germinate and infect the leaf. The plants were then transferred to a greenhouse set at 20° C. for disease to develop. When disease symptoms were fully expressed on the 1st leaves of untreated plants, infection levels were assessed on a scale of 0 to 100 percent disease severity. Percent disease control was calculated using the ratio of disease severity on treated plants relative to untreated plants. Evaluation of Fungicidal Activity: Wheat Powdery Mildew (Blumeria Graminis f. sp. Tritici; Synonym: Erysiphe graminis f. sp. Tritici; Bayer Code […]) Wheat plants (variety Yuma) were grown from seed in a greenhouse in 50% mineral soil/50% soil-less Metro mix until the first leaf was fully emerged, with 7-10 seedlings per pot. These plants were inoculated by dusting with infected stock plants 24 hr after fungicide treatments. After inoculation the plants were kept in a greenhouse set at 20° C. for disease to develop. Fungicide formulation, application and disease assessment on the sprayed leaves followed the procedures as described in the Example A.

Uncinula necator = experiment: Grape powdery mildew (UNCINE) fungicidal activity; conditions: Erysiphe necator, 24 h, 1 Day Protectant, read-out: Disease Control UNCINE 1DP
Method: Technical grades of materials were dissolved in acetone, which were then mixed with nine volumes of water containing 110 ppm Triton X-100. The fungicide solutions were applied onto wheat seedlings using an automated booth sprayer to run-off. All sprayed plants were allowed to air dry prior to further handling. Wheat plants (variety Yuma) were grown from seed in a greenhouse in 50% mineral soil/50% soil-less Metro mix until the first leaf was fully emerged, with 7-10 seedlings per pot. These plants were inoculated with an aqueous spore suspension of Septoria tritici either prior to or after fungicide treatments. After inoculation the plants were kept in 100% relative humidity (one day in a dark dew chamber followed by two to three days in a lighted dew chamber at 20° C.) to permit spores to germinate and infect the leaf. The plants were then transferred to a greenhouse set at 20° C. for disease to develop. When disease symptoms were fully expressed on the 1st leaves of untreated plants, infection levels were assessed on a scale of 0 to 100 percent disease severity. Percent disease control was calculated using the ratio of disease severity on treated plants relative to untreated plants. Evaluation of Fungicidal Activity: Grape Powdery Mildew (Uncinula Necator; Bayer Code […]) Grape seedlings (variety Carignane) were grown in soil-less Metro mix, with one plant per pot, and used in the test when approximately one month old. Plants were inoculated 24 hr after fungicide treatment by shaking spores from infected leaves over test plants. Plants were maintained in a greenhouse set at 20° C. until disease was fully developed. Fungicide formulation, application and disease assessment on the sprayed leaves followed the procedures as described in the Example A.

Cercospora beticola = experiment: Leaf spot of sugar beets (CERCBE) fungicidal activity; conditions: 24 h, 1 Day Protectant, sugar beet, read-out: Disease Control CERCBE 1DP
Method: Technical grades of materials were dissolved in acetone, which were then mixed with nine volumes of water containing 110 ppm Triton X-100. The fungicide solutions were applied onto wheat seedlings using an automated booth sprayer to run-off. All sprayed plants were allowed to air dry prior to further handling. Wheat plants (variety Yuma) were grown from seed in a greenhouse in 50% mineral soil/50% soil-less Metro mix until the first leaf was fully emerged, with 7-10 seedlings per pot. These plants were inoculated with an aqueous spore suspension of Septoria tritici either prior to or after fungicide treatments. After inoculation the plants were kept in 100% relative humidity (one day in a dark dew chamber followed by two to three days in a lighted dew chamber at 20° C.) to permit spores to germinate and infect the leaf. The plants were then transferred to a greenhouse set at 20° C. for disease to develop. When disease symptoms were fully expressed on the 1st leaves of untreated plants, infection levels were assessed on a scale of 0 to 100 percent disease severity. Percent disease control was calculated using the ratio of disease severity on treated plants relative to untreated plants. Evaluation of Fungicidal Activity: Leaf Spot of Sugar Beets (Cercospora Beticola; Bayer Code CERCBE) Sugar beet plants (variety HH88) were grown in soil-less Metro mix and trimmed regularly to maintain an uniform plant size prior to test. Plants were inoculated with a spore suspension 24 hr after fungicide treatments. Inoculated plants were kept in a dew chamber at 22° C. for 48 hr then incubated in a greenhouse set at 24° C. under a clear plastic hood with bottom ventilation until disease symptoms were fully expressed. Fungicide formulation, application and disease assessment on the sprayed leaves followed the procedures as described in the Example A.

Puccinia triticina = experiment: Fungicide mobility (dropline mobility test), wheat brown rust (PUCCRT); conditions: 1 ug/leaf, disease-free zone as percent of distance from marked line to leaf tip; for Dropline Mobility Test PUCCRT 1 DPM: 1 Day Protectant Mobility; for Dropline Mobility Test PUCCRT 3 DCM: 3 Day Curative Mobility
How it was run: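 Yuma wheat primary leaves, held horizontal, got a 2 μl drop of EC-formulated compound in water with 110 ppm Triton X-100 on a line 5 cm from the tip; 6 replicates. Inoculation 1 day after or 3 days before application. Acropetal disease-free zone measured as percent of line-to-tip distance once control rust fully expressed.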

Phakopsora pachyrhizi = experiment: Asian soybean rust (PHAKPA) fungicidal activity; conditions: 25 ppm; for Disease Control PHAKPA 1 DP: 1 Day Protectant; for Disease Control PHAKPA 2 DC: 2 Day Curative
Method: Evaluation of Fungicidal Activity: Asian Soybean Rust (Phakopsora Pachyrhizi; Bayer Code […]) Technical grades of materials were dissolved in acetone, which were then mixed with nine volumes of water containing 0.011% Tween 20. The fungicide solutions were applied onto soybean seedlings using an automated booth sprayer to run-off. All sprayed plants were allowed to air dry prior to further handling. Soybean plants (variety Williams 82) were grown in soil-less Metro mix, with one plant per pot. Two weeks old seedlings were used for testing. Plants were inoculated either 2 days prior to or 1 day after fungicide treatments. Plants were incubated for 24 h in a dark dew room at 22° C. and 100% RH then transferred to a growth room at 23° C. for disease to develop. Disease severity was assessed on the sprayed leaves.

## COc1ccnc(C(=O)N[C@H]2COC[C@H](Cc3ccccc3)[C@@H](OCC(C)C)[C@H](C)OC2=O)c1OCOC(=O)C(C)C [Compound 3]
[1]
  pest or weed control at 100 ppm: 80 to 100%
Uncinula necator
  pest or weed control at 100 ppm: 80 to 100%
Cercospora beticola
  pest or weed control at 100 ppm: 80 to 100%
Puccinia triticina
  Dropline Mobility Test PUCCRT 1 DPM: B (More than 0-Less than 80)
  Dropline Mobility Test PUCCRT 3 DCM: B (More than 0-Less than 80)
Phakopsora pachyrhizi
  Disease Control PHAKPA 1 DP: A (80-100)
  Disease Control PHAKPA 2 DC: A (80-100)

## COc1ccnc(C(=O)N[C@H]2COC[C@H](Cc3ccccc3)[C@@H](OCC(C)C)[C@H](C)OC2=O)c1OCOC(=O)C(C)(C)C [Compound 7]
[1]
  pest or weed control at 100 ppm: 0 to 80%
Uncinula necator
  pest or weed control at 100 ppm: 80 to 100%
Cercospora beticola
  pest or weed control at 100 ppm: 80 to 100%
Puccinia triticina
  Dropline Mobility Test PUCCRT 1 DPM: B (More than 0-Less than 80)
  Dropline Mobility Test PUCCRT 3 DCM: B (More than 0-Less than 80)
Phakopsora pachyrhizi
  Disease Control PHAKPA 1 DP: A (80-100)
  Disease Control PHAKPA 2 DC: A (80-100)

## COc1ccnc(C(=O)N[C@H]2COC[C@H](Cc3ccccc3)[C@@H](OCC(C)C)[C@H](C)OC2=O)c1OCOC(C)=O [Compound 8, (2-((3S,7S,8R,9S)-7-benzyl-8-isobutoxy-9-methyl-2-oxo-1,5-dioxonan-3-ylcarbamoyl)-4-methoxypyridin-3-yloxy)methyl acetate]
[1]
  pest or weed control at 100 ppm: 80 to 100%
Uncinula necator
  pest or weed control at 100 ppm: 80 to 100%
Cercospora beticola
  pest or weed control at 100 ppm: 80 to 100%
Puccinia triticina
  Dropline Mobility Test PUCCRT 1 DPM: B (More than 0-Less than 80)
  Dropline Mobility Test PUCCRT 3 DCM: B (More than 0-Less than 80)
Phakopsora pachyrhizi
  Disease Control PHAKPA 1 DP: A (80-100)
  Disease Control PHAKPA 2 DC: A (80-100)

## COc1ccnc(C(=O)N[C@H]2COC[C@H](Cc3ccccc3)[C@@H](OCC(C)C)[C@H](C)OC2=O)c1OC(C)=O [Compound 9, 2-(((3S,7S,8R,9S)-7-benzyl-8-isobutoxy-9-methyl-2-oxo-1,5-dioxonan-3-yl)carbamoyl)-4-methoxypyridin-3-yl acetate]
[1]
  pest or weed control at 100 ppm: 80 to 100%
Uncinula necator
  pest or weed control at 100 ppm: 80 to 100%
Cercospora beticola
  pest or weed control at 100 ppm: 80 to 100%
Puccinia triticina
  Dropline Mobility Test PUCCRT 1 DPM: B (More than 0-Less than 80)
  Dropline Mobility Test PUCCRT 3 DCM: B (More than 0-Less than 80)
Phakopsora pachyrhizi
  Disease Control PHAKPA 1 DP: A (80-100)
  Disease Control PHAKPA 2 DC: A (80-100)

## COc1ccnc(C(=O)N[C@H]2COC[C@H](Cc3ccccc3)[C@@H](OCC(C)C)[C@H](C)OC2=O)c1OC(=O)OC(C)C [Compound 10, 2-(((3S,7S,8R,9S)-7-benzyl-8-isobutoxy-9-methyl-2-oxo-1,5-dioxonan-3-yl)carbamoyl)-4-methoxypyridin-3-yl isopropyl carbonate]
[1]
  pest or weed control at 100 ppm: 0 to 80%
Uncinula necator
  pest or weed control at 100 ppm: 0 to 80%
Cercospora beticola
  pest or weed control at 100 ppm: 80 to 100%
Puccinia triticina
  Dropline Mobility Test PUCCRT 1 DPM: B (More than 0-Less than 80)
  Dropline Mobility Test PUCCRT 3 DCM: B (More than 0-Less than 80)
Phakopsora pachyrhizi
  Disease Control PHAKPA 1 DP: A (80-100)
  Disease Control PHAKPA 2 DC: A (80-100)

## COc1ccnc(C(=O)N[C@H]2COC[C@H](Cc3ccccc3)[C@@H](OC3CCCC3)[C@H](C)OC2=O)c1OCOC(=O)C(C)C [Compound 108]
Uncinula necator
  pest or weed control at 100 ppm: 80 to 100%
Cercospora beticola
  pest or weed control at 100 ppm: 80 to 100%
Phakopsora pachyrhizi
  Disease Control PHAKPA 1 DP: A (80-100)
  Disease Control PHAKPA 2 DC: A (80-100)
